Data set [1] concerns Hela cells. Conditions: cited from earlier work.
Data set [2] deals with HeLa cells. In words: Peptide internalization by immunofluorescence microscopy (fluorescein-conjugated streptavidin). The class given is cell-based, human. Particulars: 10 μM for 1 h. How it is done:
First, the internalization of the peptides was evaluated. Cells treated with the peptide were probed with a fluorescein-conjugated streptavidin antibody to determine the presence of the biotinylated peptides.

The subject of data set [3] is HeLa cells. Kind of data set: Length of time the peptides remain in cells (degradation, immunofluorescence). How it is done:
HeLa cells were treated with 10 μM R9, wtNIP, or scNIP for one hour and harvested at indicated time points before they were analyzed by immunofluorescence microscopy staining with an […].
Immunofluorescence microscopy: Exponentially growing cultures of cells were plated on sterile, […] coverslips, and incubated for 24 hours at 37° C. in 5% CO2 humidified air before they are treated with the NIP peptides at room temperature. Coverslips were washed with PBS and fixed with 4% paraformaldehyde-0.25% Triton X-100 for 15 minutes at room temperature, blocked for 30 minutes at room temperature, and incubated with FITC-conjugated streptavidin or anti-γH2AX and phospho-NBS1 antibodies (Rockland Immunochemicals, Gilbertsville, Pa.) for 1 hour at room temperature. Coverslips were then mounted with Vectashield Elite (Vector Labs, Burlingame, Calif.) and observed with a Leica fluorescence microscope. Images were captured at 40× magnification using a Q Imaging Retiga Exi digital camera and analyzed with Image Pro-Plus 5.1 software.
Because the peptides would be used in radiation studies, the length of time the peptides remain in cells was determined to ensure that the peptides would be present throughout the DNA repair process after IR.

The next data set deals with T1, NBS1-ATM interaction (Homo sapiens, UniProt Q13315).
T1 construct: endogenous in cells; host or cells: HeLa
In words: Co-immunoprecipitation of ATM with NBS1 in peptide-treated cells. Particulars: HeLa cells, four hours after peptide treatment, unirradiated. The class given is cell-based. How it is done:
HeLa cells treated with the NIP peptides were irradiated (0 or 6Gy). Immunoprecipitation was performed with a rabbit NBS1 antibody, and Western blotting was performed with monoclonal antibodies against ATM, NBS1 or MRE11.
Immunoprecipitation and Western blotting: For co-immunoprecipitation of ATM, NBS1 and MRE11, cells were lysed 1 hour in ice-cold lysis buffer, which consisted of 10 mM Tris-HCl (pH 7.5), 100 mM NaCl, 5 mM EDTA, 0.5% NP-40, 5 mM Na3VO4, 1 mM NaF, and 1 mM PMSF. After centrifugation, supernatants were incubated with indicated antibodies. After extensive washing with the lysis buffer, immunoprecipitates were analyzed by immunoblot using specific antibodies. For western blotting analysis, samples (cell lysates or immunoprecipitates) were separated on 4-12% SDS-poly-acrylamide gels, transferred to nitrocellulose membranes, and probed with various antibodies.
wtNIP Abrogated the NBS1-ATM Interaction: To investigate whether R9-conjugated NIP peptides could inhibit NBS1-ATM interactions, coimmunoprecipitation experiments were performed in cells treated with the NIP peptides. Four hours after peptide treatment, HeLa cells were harvested and subjected to immunoprecipitation using an anti-NBS1 antibody. The immunoprecipitates were then blotted with anti-ATM, NBS1, and MRE11 antibodies.

In data set [4] the test system is γ-H2AX foci in HeLa cells. In words: IR-induced γ-H2AX focus formation, HeLa. Format: cell-based, human. Particulars: 10 μM peptide, 30 minutes after 6Gy IR. From the text: (§1) Error bars represent +/−1 SD, graphed are the mean of three independent experiments.
(§2) wtNIP Inhibits IR-Induced γ-H2AX and NBS1 pSer343 Focus Formation: One of the earliest responses to IR-induced DNA damage is the formation of γ-H2AX foci, which requires functional ATM (Burma et al., 2001; Furuta et al., 2003). […] Immunofluorescence microscopy was used to detect the presence of γ-H2AX foci in mock-irradiated or irradiated cells in the presence of R9, wtNIP or scNIP. […] Therefore, IR-induced γ-H2AX focus formation can be inhibited by wt-NIP.

For data set [5], the system named is γ-H2AX foci in DU-145 cells. Kind of data set: IR-induced γ-H2AX focus formation, DU-145. The class given is cell-based, human. Conditions: 10 μM peptide, 6Gy.
From the text: as §1, §2

Data set [6] has as its system NBS1 phosphorylation on serine 343 in HeLa cells. Kind of data set: IR-induced NBS1 pSer343 focus formation, HeLa. Format: cell-based, human.
From the text: as §1
To further support the idea that wtNIP can inhibit ATM-mediated DNA damage pathways, IR-induced NBS1 focus formation, an event considered to be an ATM-dependent process at the sites of DSBs (Lim et al., 2000) was investigated. NBS1 foci are a result of ATM-mediated NBS1 phosphorylation on serine 343. […] The average number of foci in mock-irradiated HeLa cells was 6, 8, and 6 for R9, wtNIP, and scNIP, respectively.

Data set [7] has as its system HeLa cells. Kind of data set: Colony formation assay (radiosensitivity), HeLa. How it is done:
Shown in A (HeLa), C (MO59J) and D (GM9607) are the susvival curves after indicated doses of radiation. Error bars represent +/−1 SEM, graphed are the mean of three independent experiments.
Colony formation assays: To determine the radiosensitivity, the colony forming assay was incorporated. Cells were harvested with 0.125% trypsin-0.05% EDTA, pelleted and re-suspended in 1 ml fresh media with a 22 g needle to disperse clumps prior to hemocytometer counting in trypan blue. Cells were then plated at limiting dilutions in […] and allowed to adhere overnight. Cultures were treated with PBS, R9, wtNIP, or scNIP for 1 hour, and irradiated (0-6Gy). Fresh peptides were added every four hours until 24 hours after IR, when the medium was replaced with peptide-free medium. Cultures were incubated for 10-12 days, harvested and stained with 0.5% crystal violet in methanol. Colony number was determined with a dissecting microscope. A population of >50 cells was counted as one colony, and the number of colonies was expressed as a percentage of the value for untreated mock irradiated control cells. The surviving curves were plotted by linear regression analyses and the D0 value represents the radiation dose that leads to 37% of survival. To determine the radiosensitizing potential of the peptides in comparison to other small molecule inhibitors, the sensitizing enhancement ratio (SER) was calculated based on the dose of radiation required to reduce survival to 37% in the presence of scNIP or wtNIP. The following formula was used: […]
Statistics: To establish statistical significance, Student's t-test was incorporated. The data were first fit to each experimental group over a dose range of 0-6Gy. Significant differences were established at p<0.05.
FIG. 6A depicts the survival curves for HeLa cells treated with R9, wtNIP, or scNIP over a dose range of 0 to 6 Gy.

The next data set deals with ATM (human, UniProt Q13315 2-3056). In words: cell-based or functional assay.
ATM, sequence (Q13315 other isoform, or with tags, fused parts or gaps limits assumed): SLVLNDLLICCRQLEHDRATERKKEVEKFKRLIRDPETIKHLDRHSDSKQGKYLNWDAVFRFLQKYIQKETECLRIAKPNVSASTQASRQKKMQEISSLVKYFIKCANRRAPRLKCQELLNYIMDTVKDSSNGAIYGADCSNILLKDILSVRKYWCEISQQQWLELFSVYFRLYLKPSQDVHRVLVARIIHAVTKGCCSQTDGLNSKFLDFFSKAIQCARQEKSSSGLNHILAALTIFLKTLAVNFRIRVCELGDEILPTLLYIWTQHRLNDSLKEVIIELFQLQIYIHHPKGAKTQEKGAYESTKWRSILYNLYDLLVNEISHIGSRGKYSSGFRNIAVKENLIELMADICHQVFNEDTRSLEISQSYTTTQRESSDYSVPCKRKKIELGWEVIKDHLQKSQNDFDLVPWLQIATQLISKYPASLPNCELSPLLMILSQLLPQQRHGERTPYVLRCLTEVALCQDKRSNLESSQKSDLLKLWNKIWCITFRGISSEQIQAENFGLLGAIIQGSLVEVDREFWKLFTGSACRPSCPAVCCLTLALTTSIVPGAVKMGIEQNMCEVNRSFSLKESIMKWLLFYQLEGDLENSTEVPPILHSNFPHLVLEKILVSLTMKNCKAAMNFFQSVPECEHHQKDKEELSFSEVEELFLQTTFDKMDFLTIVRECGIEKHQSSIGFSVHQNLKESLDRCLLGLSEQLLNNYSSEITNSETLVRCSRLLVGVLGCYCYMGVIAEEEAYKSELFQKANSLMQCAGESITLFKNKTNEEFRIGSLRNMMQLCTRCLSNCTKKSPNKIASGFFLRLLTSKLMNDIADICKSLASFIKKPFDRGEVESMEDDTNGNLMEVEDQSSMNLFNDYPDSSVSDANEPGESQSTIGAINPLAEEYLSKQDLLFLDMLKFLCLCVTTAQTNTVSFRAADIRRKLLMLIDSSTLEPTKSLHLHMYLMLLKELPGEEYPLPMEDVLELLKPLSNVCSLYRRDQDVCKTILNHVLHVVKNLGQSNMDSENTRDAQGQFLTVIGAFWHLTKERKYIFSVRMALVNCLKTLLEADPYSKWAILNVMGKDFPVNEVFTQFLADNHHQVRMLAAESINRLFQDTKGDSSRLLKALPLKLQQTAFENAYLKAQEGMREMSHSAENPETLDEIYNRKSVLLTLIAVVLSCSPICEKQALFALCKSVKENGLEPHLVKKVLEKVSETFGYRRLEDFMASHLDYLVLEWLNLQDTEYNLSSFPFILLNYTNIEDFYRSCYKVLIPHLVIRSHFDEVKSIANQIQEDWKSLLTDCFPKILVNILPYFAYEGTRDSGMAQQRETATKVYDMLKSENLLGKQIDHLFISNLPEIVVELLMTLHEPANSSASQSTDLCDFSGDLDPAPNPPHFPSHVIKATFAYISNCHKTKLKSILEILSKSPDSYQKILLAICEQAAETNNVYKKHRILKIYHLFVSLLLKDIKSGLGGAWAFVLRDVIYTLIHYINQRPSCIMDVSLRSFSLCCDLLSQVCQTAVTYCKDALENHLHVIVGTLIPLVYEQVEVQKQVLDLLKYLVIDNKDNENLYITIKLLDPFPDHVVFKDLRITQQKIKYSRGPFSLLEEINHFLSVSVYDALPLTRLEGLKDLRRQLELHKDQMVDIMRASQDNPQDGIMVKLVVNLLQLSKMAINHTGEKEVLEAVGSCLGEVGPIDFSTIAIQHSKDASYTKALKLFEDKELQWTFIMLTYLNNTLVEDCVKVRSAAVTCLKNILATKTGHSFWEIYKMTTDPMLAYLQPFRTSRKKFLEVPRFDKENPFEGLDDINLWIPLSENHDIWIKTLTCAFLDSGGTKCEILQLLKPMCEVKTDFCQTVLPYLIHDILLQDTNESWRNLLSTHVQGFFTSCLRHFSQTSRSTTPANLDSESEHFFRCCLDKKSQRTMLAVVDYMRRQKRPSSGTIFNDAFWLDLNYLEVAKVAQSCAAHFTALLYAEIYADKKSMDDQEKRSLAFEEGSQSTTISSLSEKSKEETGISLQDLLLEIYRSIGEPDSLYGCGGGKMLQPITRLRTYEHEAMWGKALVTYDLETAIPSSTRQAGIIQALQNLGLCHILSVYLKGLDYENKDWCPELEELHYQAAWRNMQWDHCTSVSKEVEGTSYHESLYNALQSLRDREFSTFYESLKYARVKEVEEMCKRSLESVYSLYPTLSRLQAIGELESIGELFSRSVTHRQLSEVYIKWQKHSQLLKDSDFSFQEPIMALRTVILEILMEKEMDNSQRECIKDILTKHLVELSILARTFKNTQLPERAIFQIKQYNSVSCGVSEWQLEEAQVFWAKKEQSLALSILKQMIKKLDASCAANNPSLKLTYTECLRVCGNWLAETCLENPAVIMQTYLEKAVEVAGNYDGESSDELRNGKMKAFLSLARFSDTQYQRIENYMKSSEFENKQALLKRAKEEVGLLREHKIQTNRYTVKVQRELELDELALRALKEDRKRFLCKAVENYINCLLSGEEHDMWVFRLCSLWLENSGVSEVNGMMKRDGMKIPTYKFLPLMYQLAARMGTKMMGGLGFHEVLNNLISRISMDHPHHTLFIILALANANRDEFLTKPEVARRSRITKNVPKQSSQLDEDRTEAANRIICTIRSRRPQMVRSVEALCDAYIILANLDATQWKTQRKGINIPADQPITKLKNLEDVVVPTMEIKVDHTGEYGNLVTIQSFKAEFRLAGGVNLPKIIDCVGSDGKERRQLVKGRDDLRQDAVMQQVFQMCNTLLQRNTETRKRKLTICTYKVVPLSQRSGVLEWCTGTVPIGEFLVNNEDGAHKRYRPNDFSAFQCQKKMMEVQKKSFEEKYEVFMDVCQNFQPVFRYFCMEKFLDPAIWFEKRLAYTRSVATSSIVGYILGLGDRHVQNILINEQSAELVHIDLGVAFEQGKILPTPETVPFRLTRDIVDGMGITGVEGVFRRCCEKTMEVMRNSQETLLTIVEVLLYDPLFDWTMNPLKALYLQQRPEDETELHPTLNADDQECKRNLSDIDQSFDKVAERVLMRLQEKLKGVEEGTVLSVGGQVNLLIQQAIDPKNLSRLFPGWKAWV

Ends that are not written are not given here. Peptide text beside a SMILES is read from it. * marks the point of attachment. Biotin = O=C1N[C@H]2[C@H](CS[C@H]2CCCCC(=O)*)N1

Take `O=c1cc(-c2cccc3c2Sc2ccccc2S3)oc(N2CCOCC2)c1` [KU55933]: the radiosensitivity entry with Hela cells [1] (Hela cells) is “significant increase in radiosensitivity”. In the data set with Hela cells [1], the “increase in sensitivity to etoposide” value was ≤ 35.5 fold.
`CC(C)C[C@H](NC(=O)[C@H](CCC(=O)O)NC(=O)[C@H](CCC(=O)O)NC(=O)[C@H](CC(C)C)NC(=O)[C@H](CC(=O)O)NC(=O)[C@H](C)NC(=O)[C@H](CC(=O)O)NC(=O)[C@H](CO)NC(=O)[C@H](CCCNC(=N)N)NC(=O)[C@H](CCCNC(=N)N)NC(=O)[C@H](CCCNC(=N)N)NC(=O)[C@H](CCCNC(=N)N)NC(=O)[C@H](CCCNC(=N)N)NC(=O)[C@H](CCCNC(=N)N)NC(=O)[C@H](CCCNC(=N)N)NC(=O)[C@H](CCCNC(=N)N)NC(=O)[C@H](CCCNC(=N)N)NC(=O)CCCC[C@@H]1SC[C@@H]2NC(=O)N[C@@H]21)C(=O)N[C@@H](CCCCN)C(=O)O` [scNIP] (Biotin-RRRRRRRRRSDADLEELK-OH): in the data set on HeLa cells [2], the “cellular uptake of peptide” value is reported as “significant cellular uptake of peptide”. The “localization of internalized peptide” value with HeLa cells [2] was “cytoplasmic and nuclear compartments”. The “fluorescent intensity levels of peptide in cells” value with HeLa cells [3] (8 hours) is given as “much weaker”; in the data set on HeLa cells [3] (within 4 hours), “began to decrease”. The entries for the “peptide staining in cells” value in the data set on HeLa cells [3] (12 hours) and with HeLa cells [3] (24 hours) were “much weaker cytoplasmic staining with no observed nuclear staining” and “no detectable presence of the peptides”, respectively. In addition, the “presence of peptides in cells” value with HeLa cells [3] (within 2 hours of treatment) was “strong distribution”. Besides, the “ATM-NBS1 association (anti-NBS1 immunoprecipitation, anti-ATM blot)” value at NBS1-ATM interaction was “did not affect the NBS1-ATM interaction”. For the same molecule, the “average number of γ-H2AX foci/nucleus” value in data set [4] turned out to be 41 foci/nucleus. For the same molecule, the “IR-induced γ-H2AX focus formation” value in [5] is on record as “did not affect IR-induced focus formation”. The “NBS1 pSer343 foci per nucleus” value in data set [6] (HeLa cells after treatment with 6-Gy IR) is listed as 31 foci per nucleus. The “average number of NBS1 pSer343 foci” value in data set [6] (mock-irradiated HeLa cells) turned out to be 6. For the same molecule, the “D0 (mean lethal dose required for 37% survival)” value in the data set on HeLa cells [7] is 3.0. Moreover, the “effect of peptide on clonogenic survival” value in the data set with HeLa cells [7] (10 μM peptide) is given as “no significant difference between treatment groups”. Also, in the data set on HeLa cells [7] (dose range 0 to 6 Gy), the “effect on radiosensitivity / IR-induced survival” value is reported as “Neither R9 nor scNIP affects radiosensitivity”.
For Biotin-RRRRRRRRRKEESLADDLF [wild-type NBS1 inhibitory peptide (wtNIP)], in the data set with ATM, the “SER (sensitizing enhancement ratio), DU-145” value is 1.46; the “SER (sensitizing enhancement ratio), HeLa” value came out at 1.58; the “SER (sensitizing enhancement ratio), M059J cells (defective DNA-PKcs)” value was found to be 1.83; the “sensitizer enhancement ratio at 2Gy, HeLa” value is 1.66. Also, in the data set with ATM, the “sensitizer enhancement ratio at 4Gy, HeLa” value was determined as 2.61 and the “sensitizer enhancement ratio at 6Gy, HeLa” value is 3.12.

The record behind these values is US20100120679A1, “Targeting NBS1-ATM Interaction To Sensitize Cancer Cells To Radiotherapy And Chemotherapy” (SOUTHERN RESEARCH INSTITUTE, priority 2006, published 2010).
